# Values of other authors in patent US10640803B2, “Methods for determining chemosensitivity and chemotoxicity” (priority 2013, dated 2020).
# Tested on: CLL patients
# Details: caused the halt of the study
smiles,measurement,value
CC1(C)CCC(c2ccc(Cl)cc2)=C(CN2CCN(c3ccc(C(=O)NS(=O)(=O)c4ccc(N[C@H](CCN5CCOCC5)CSc5ccccc5)c(S(=O)(=O)C(F)(F)F)c4)cc3)CC2)C1 [ABT-263],adverse event in the study,occurrence of tumor lysis syndrome
